Results taken from US5739104A, “Anti-fungal agents” (Schering Corporation, priority 1995, dated 1998).
Blank lines part the entries; values can stand above or below the molecule they belong to. Starred links: 1 amine or outer side, 2 acyl side, 3 side chain; linkers in the order of their positions; H or OH if unused. Non-standard residues stand in square brackets, D forms with d. Residues, ends and D or L forms follow the SMILES beside them. X1 = O=C([C@H](O[*:1])C1CCCCC1)[*:2]; X2 = O=C([C@H](O[*:1])c1ccccc1)[*:2]; X3 = O=C([C@H](O[*:1])C1CCCC1)[*:2]; X4 = O=C([C@@H](O[*:1])C1CC1)[*:2]; NMeF = CN[C@@H](Cc1ccccc1)C(=O)O; NMeT = CN[C@H](C(=O)O)[C@@H](C)O; aIle = CC[C@@H](C)[C@H](N)C(=O)O; NMeV = CN[C@H](C(=O)O)C(C)C; dHiv = CC(C)[C@@H](O)C(=O)O; Pip = O=C(O)[C@@H]1CCCCN1; Aze = O=C(O)[C@@H]1CCN1

What was measured:
[1] = system: Candida albicans, Candida tropicalis, Candida stellatoidea, Candida parapsilosis, Candida krusei; assay: In vitro anti-fungal microtiter minimum inhibitory concentration (MIC) test, geometric mean over Candida strains; assay type: cell-based
Description: The geometric mean is taken from the following strains
Candida stellatoidea C184
The minimum inhibitory concentrations (GMMICs-R(μg/ml) for Ca (SDB) Ca (EMEM) (Derm) and (Asp) for the compounds of formula I of the invention are as shown in Table 2 above.
The minimum inhibitory concentrations were determined in accordance with the procedure set forth just below.
In vitro anti-fungal activity was determined in microtiter minimum inhibitory concentration (MIC) tests using Yeast Nitrogen Broth (YNB without amino acids, Difco., Detroit, Mich.) at pH 5.4. Yeasts were grown overnight in Sabouraud Dextrose Broth at 28° C. with shaking, and concentrations adjusted in sterile saline using a spectrophoptometer at 540 mμ. Compounds were dissolved in various vehicles and diluted in media to twice the final concentrations. The Cetus Pro/Pette system was used to serially dilute 50 μl in round bottom 96 well plates (Falcon, Lincoln Park, N.J.). The turbidometrically adjusted yeast suspensions were diluted 1:3,000 in YNB. These dilutions when added to the wells, produced a final inoculum of 3×10^3 /ml. Plates were incubated at 37° C. for 48 hours. MICs were defined as the lowest concentrations of compound that prevented visible growth. MICs were taken against the following organisms and expressed in the table above as the geometric mean.

C. Albicans, C-43 = assay: In vivo anti-fungal activity, C. albicans infection study in mice; conditions: once a day for 4 days starting 4 hours post infection
Description: In vivo anti-fungal activity for compounds of formula I of the invention was determined by using the test protocol set forth in Cacciapuoti et al, ANTIMICROBIAL AGENTS AND CHEMOTHERAPY, Vol.36, No. 1, January 1992, p. 64-67, which is hereby incorporated by reference. The specific test protocol used to obtain the data given below, appears in the just above mentioned article at pages 64 and 65 under the heading "C. albicans infection studies". Data obtained from this test protocol are as follows:
The numbering for the compounds tested is the same as the numbering used for the compounds in the rest of the application. The mice used in the above experiment were Charles River, white, male, mice weighing between 18 and 20 grams. The organism used to infect the mice was C. Albicans, C-43, 1XE6 CFU/mice, 0.1 M1 IV. The treatment was once a day for 4 days starting 4 hours post infection for those compounds which have a * next to them. For those compounds which have no * next to them, the treatment was once a day for 4 days starting 24 hours post infection. The dose was 0.1 ml/mouse in either case. The vehicle used with the compounds was Tween 80:Ethanol:PBS (1:9:40 or 2%:18%:80%)

[2] = EMEM, geometric mean over 14 Candida strains, 37° C., 48 hours
[3] = SDB, geometric mean over 14 Candida strains, 37° C., 48 hours

SMILES: CC[C@@H](C)[C@@H]1NC(=O)[C@@H]2CCN2C(=O)[C@H](Cc2ccccc2)N(C)C(=O)[C@H](Cc2ccccc2)NC(=O)[C@H](C(C)C)N(C)C(=O)[C@@H](C2CCCC2)OC(=O)[C@H]([C@@H](C)O)N(C)C(=O)[C@H](CC(C)C)NC(=O)[C@H](C(C)C)N(C)C1=O [Compound 5] (cyclo([Aze][aIle][NMeV]L[NMeT][X3][NMeV]F[NMeF]))
Geo. Mean MICs (μg/ml) Ca. (EMEM) ([1]; 48 h): 0.195 µg/mL | Geo. Mean MICs (μg/ml) Ca. (SDB) ([1]; 48 h): 0.015 µg/mL

SMILES: CC[C@@H](C)[C@@H]1NC(=O)[C@@H]2CCCN2C(=O)[C@H](Cc2ccccc2)N(C)C(=O)[C@H](Cc2ccccc2)NC(=O)[C@H](C(C)C)N(C)C(=O)[C@@H](C2CCCCC2)OC(=O)[C@H]([C@@H](C)O)N(C)C(=O)[C@H](CC(C)C)NC(=O)[C@H](C(C)C)N(C)C1=O [Compound 1, Cyclo-depsi-N-methyl-threonyl-(2-hydroxyl-2-cyclohexylacetyl)-N-methylvalyl-phenylanalyl-N-methylphenylanalyl-prolyl-allo-isoleucyl-N-methylvalyl-leucine] (cyclo(F[NMeF]P[aIle][NMeV]L[NMeT][X1][NMeV]))
Geo. Mean MICs (μg/ml) Ca. (EMEM) [1, 2]: 0.288 µg/mL | Geo. Mean MICs (μg/ml) Ca. (SDB) [1, 3]: 0.018 µg/mL | % Survival (C. Albicans, C-43; 5 MPK IV): 60% | CFUs (GM) (C. Albicans, C-43; 5 MPK IV): 6.90 | % Survival (C. Albicans, C-43; 5 MPK PO): 70% | CFUs (GM) (C. Albicans, C-43; 5 MPK PO): 6.68 | % Survival (C. Albicans, C-43; 10 MPK IV): 70% | CFUs (GM) (C. Albicans, C-43; 10 MPK IV): 7.11 | % Survival (C. Albicans, C-43; 10 MPK PO): 100% | CFUs (GM) (C. Albicans, C-43; 10 MPK PO): 6.01 | % Survival (C. Albicans, C-43; 20 MPK PO): 100% | CFUs (GM) (C. Albicans, C-43; 20 MPK PO): 6.38 | % Survival (C. Albicans, C-43; 40 MPK PO): 100% | CFUs (GM) (C. Albicans, C-43; 40 MPK PO): 6.52

SMILES: CC[C@@H](C)[C@@H]1NC(=O)[C@@H]2CCCN2C(=O)[C@H](Cc2ccccc2)N(C)C(=O)[C@H](Cc2ccccc2)NC(=O)[C@H](C(C)C)N(C)C(=O)[C@H](C2CC2)OC(=O)[C@H]([C@@H](C)O)N(C)C(=O)[C@H](CC(C)C)NC(=O)[C@H](C(C)C)N(C)C1=O [Compound 8] (cyclo([X4][NMeV]F[NMeF]P[aIle][NMeV]L[NMeT]))
Geo. Mean MICs (μg/ml) Ca. (EMEM) ([1]; 48 h): 0.780 µg/mL | Geo. Mean MICs (μg/ml) Ca. (SDB) ([1]; 48 h): 0.133 µg/mL

SMILES: CC[C@@H](C)[C@@H]1NC(=O)[C@@H]2CCN2C(=O)[C@H](Cc2ccccc2)N(C)C(=O)[C@H](Cc2ccccc2)NC(=O)[C@H](C(C)C)N(C)C(=O)[C@@H](C2CCCCC2)OC(=O)[C@H]([C@@H](C)O)N(C)C(=O)[C@H](CC(C)C)NC(=O)[C@H](C(C)C)N(C)C1=O [Compound 2, Cyclo-depsi-N-methyl-threonyl-(2-hydroxy-2-cyclohexylacetyl)-N-methylvalyl-phenylalanyl-N-methylphenylalanyl-azetidinyl-allo-isoleucyl-N-methylvalyl-leucine] (cyclo([Aze][aIle][NMeV]L[NMeT][X1][NMeV]F[NMeF]))
Geo. Mean MICs (μg/ml) Ca. (EMEM) [1, 2]: 0.353 µg/mL | Geo. Mean MICs (μg/ml) Ca. (SDB) [1, 3]: 0.062 µg/mL

More lines, now with the values ahead:

Geo. Mean MICs (μg/ml) Ca. (EMEM) ([1]; 48 h): 0.500 µg/mL | Geo. Mean MICs (μg/ml) Ca. (SDB) ([1]; 48 h): 0.032 µg/mL
SMILES: CC[C@@H](C)[C@@H]1NC(=O)[C@@H]2CCCN2C(=O)[C@H](Cc2ccccc2)N(C)C(=O)[C@H](Cc2ccccc2)NC(=O)[C@H](C(C)C)N(C)C(=O)[C@@H](C(C)C)OC(=O)[C@H]([C@@H](C)O)N(C)C(=O)[C@H](CC(C)C)NC(=O)[C@H](C(C)C)N(C)C1=O [Compound 4] (cyclo(F[NMeF]P[aIle][NMeV]L[NMeT][dHiv][NMeV]))

Geo. Mean MICs (μg/ml) Ca. (EMEM) ([1]; 48 h): 0.710 µg/mL | Geo. Mean MICs (μg/ml) Ca. (SDB) ([1]; 48 h): 0.170 µg/mL
SMILES: CC[C@@H](C)[C@@H]1NC(=O)[C@@H]2CCCN2C(=O)[C@H](Cc2ccccc2)N(C)C(=O)[C@H](Cc2ccccc2)NC(=O)[C@H](C(C)C)N(C)C(=O)[C@@H](c2ccccc2)OC(=O)[C@H]([C@@H](C)O)N(C)C(=O)[C@H](CC(C)C)NC(=O)[C@H](C(C)C)N(C)C1=O [Compound 7] (cyclo(F[NMeF]P[aIle][NMeV]L[NMeT][X2][NMeV]))

Geo. Mean MICs (μg/ml) Ca. (EMEM) ([1]; 48 h): 0.475 µg/mL | Geo. Mean MICs (μg/ml) Ca. (SDB) ([1]; 48 h): 0.290 µg/mL
SMILES: CC[C@@H](C)[C@@H]1NC(=O)[C@@H]2CCCCN2C(=O)[C@H](Cc2ccccc2)N(C)C(=O)[C@H](Cc2ccccc2)NC(=O)[C@H](C(C)C)N(C)C(=O)[C@@H](C2CCCCC2)OC(=O)[C@H]([C@@H](C)O)N(C)C(=O)[C@H](CC(C)C)NC(=O)[C@H](C(C)C)N(C)C1=O [Compound 9] (cyclo(F[NMeF][Pip][aIle][NMeV]L[NMeT][X1][NMeV]))

Geo. Mean MICs (μg/ml) Ca. (EMEM) ([1]; 48 h): 0.500 µg/mL | Geo. Mean MICs (μg/ml) Ca. (SDB) ([1]; 48 h): 0.090 µg/mL
SMILES: CC[C@@H](C)[C@@H]1NC(=O)[C@@H]2CCCN2C(=O)[C@H](Cc2ccccc2)N(C)C(=O)[C@H](Cc2ccccc2)NC(=O)[C@H](C(C)C)N(C)C(=O)[C@@H](C2CCCC2)OC(=O)[C@H]([C@@H](C)O)N(C)C(=O)[C@H](CC(C)C)NC(=O)[C@H](C(C)C)N(C)C1=O [Compound 6] (cyclo(F[NMeF]P[aIle][NMeV]L[NMeT][X3][NMeV]))
